# Values of other authors as cited in patent US10633688B2, “Systems and methods for predicting response to minoxidil for the treatment of androgenetic alopecia” (Follea International, priority 2010, dated 2020).
# Columns and labels:
# [1] = test system: female androgenetic alopecia; details: females
# [2] = biological target: T1, SULT1A1 (Homo sapiens, UniProt P50225)
# T1 construct: Plucked hairs were collected from the border between bald and non-bald scalp and inspected visually for an intact bulb; from tissue; host or cells: plucked anagen scalp hair (hair bulb / follicle) of AGA patients
# T1 sequence (P50225 whole entry): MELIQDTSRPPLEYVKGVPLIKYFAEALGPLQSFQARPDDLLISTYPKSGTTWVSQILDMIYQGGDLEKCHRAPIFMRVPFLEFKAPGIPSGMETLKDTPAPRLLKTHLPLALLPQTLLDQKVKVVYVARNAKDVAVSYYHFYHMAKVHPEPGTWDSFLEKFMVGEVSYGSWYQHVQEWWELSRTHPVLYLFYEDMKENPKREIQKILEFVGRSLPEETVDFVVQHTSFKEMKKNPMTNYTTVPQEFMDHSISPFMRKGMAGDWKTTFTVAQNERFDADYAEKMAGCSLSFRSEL
Compound,effectiveness in the treatment of female androgenetic alopecia [1],effect on SULT1A1 sulfation of minoxidil [2]
CC(C)(C)NC(=O)[C@H]1CC[C@H]2[C@@H]3CC[C@H]4NC(=O)C=C[C@]4(C)[C@H]3CC[C@]12C [finasteride],failed to show the effectiveness,–
O=C(O)c1ccccc1O [salicylic acid],–,lower SULT1A1 sulfation of minoxidil by competitive inhibition
